Measured values: ChEMBL document CHEMBL5584361, “Re-Evaluating PIN1 as a Therapeutic Target in Oncology Using Neutral Inhibitors and PROTACs” (J Med Chem, 2024)

What was measured:
[1] = molecular target: T1, Peptidyl-prolyl cis-trans isomerase NIMA-interacting 1 (Homo sapiens, UniProt Q13526); assay: Inhibition of His-tagged PIN1 (unknown origin) TAMRA labelled Bth-D-pThr-Pip-L-2Nal as substrate incubated for 30 mins by fluorescence polarization analysis
[2] = molecular target: T1, Peptidyl-prolyl cis-trans isomerase NIMA-interacting 1; assay: Binding affinity to GST-tagged PIN1 (unknown origin) assessed as dissociation constant by SPR analysis
MDA-MB-468 = assay: Antiproliferative activity against human MDA-MB-468 cells assessed as cell growth inhibition incubated for 96 hrs by Cell-Titer Glo assay; conditions: MDA-MB-468, 96 h
PANC-1 = assay: Antiproliferative activity against human PANC-1 cells assessed as cell growth inhibition incubated for 96 hrs by Cell-Titer Glo assay; conditions: PANC-1, 96 h
Huh-7 = assay: Antiproliferative activity against human Huh-7 cells assessed as cell growth inhibition incubated for 96 hrs by Cell-Titer Glo assay; conditions: Huh-7, 96 h
[3] = molecular target: Protein cereblon/Peptidyl-prolyl cis-trans isomerase NIMA-interacting 1 (Homo sapiens, UniProt Q13526+Q96SW2); assay: PROTAC activity at CRBN/PIN1 in human MDA-MB-468 cells assessed as induction of PIN1 degradation incubated for 24 hrs by high content analysis
Sequence of Protein cereblon/Peptidyl-prolyl cis-trans isomerase NIMA-interacting 1 (Q13526 whole entry): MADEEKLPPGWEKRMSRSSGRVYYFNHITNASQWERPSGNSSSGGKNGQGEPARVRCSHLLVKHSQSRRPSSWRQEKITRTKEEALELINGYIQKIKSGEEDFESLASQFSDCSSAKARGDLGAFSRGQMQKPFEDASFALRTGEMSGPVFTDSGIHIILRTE
Sequence of Protein cereblon/Peptidyl-prolyl cis-trans isomerase NIMA-interacting 1 (Q96SW2 whole entry): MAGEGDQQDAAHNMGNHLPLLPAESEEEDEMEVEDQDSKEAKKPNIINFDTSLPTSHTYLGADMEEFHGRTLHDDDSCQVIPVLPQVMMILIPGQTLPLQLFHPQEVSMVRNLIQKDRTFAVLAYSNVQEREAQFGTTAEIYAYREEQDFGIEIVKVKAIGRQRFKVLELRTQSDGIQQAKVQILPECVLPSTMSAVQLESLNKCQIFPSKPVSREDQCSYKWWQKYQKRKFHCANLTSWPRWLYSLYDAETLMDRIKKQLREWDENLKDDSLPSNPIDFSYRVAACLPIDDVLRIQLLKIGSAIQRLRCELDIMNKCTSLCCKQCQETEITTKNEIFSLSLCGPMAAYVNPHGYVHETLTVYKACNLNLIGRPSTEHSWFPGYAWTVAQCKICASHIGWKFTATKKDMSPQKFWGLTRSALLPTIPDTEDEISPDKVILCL

[4] = molecular target: T1, Peptidyl-prolyl cis-trans isomerase NIMA-interacting 1; assay: Inhibition of recombinant human PIN1 prolyl isomerase activity measured after 180 mins
[5] = Permeability across apical to basolateral side in MDCK cells incubated for 120 mins by LC-MS/MS analysis; conditions: dog
[6] = Efflux ratio of permeability across basolateral to apical side over apical to basolateral side in MDCK cells incubated for 120 mins by LC-MS/MS analysis; conditions: dog
[7] = molecular target: T1, Peptidyl-prolyl cis-trans isomerase NIMA-interacting 1

T1 sequence (Q13526 whole entry): as the sequence (Q13526 whole entry) above

Compound	IC50 [1] [µM]	GI50 (MDA-MB-468) [µM]	GI50 (PANC-1) [µM]	GI50 (Huh-7) [µM]	other results
CNC(=O)C(Cc1cn(-c2ccc(C3CCN(C)CC3)cc2)nn1)NC(=O)C1(c2ccccc2)CC1 (stereo unspecified)	> 100	–	–	–	–
CNC(=O)C(Cc1cn(-c2ccn(C)n2)nn1)NC(=O)C1(c2ccccc2)CC1 (stereo unspecified)	> 10	–	–	–	Kd [2]: 39.3 µM
Cc1cccnc1C1(C(=O)NC(Cc2cn(-c3ccc(-c4ccc(C#N)cc4)cc3)nn2)C(=O)NCCCOc2cccc3c2C(=O)N(C2CCC(=O)NC2=O)C3=O)CC1 (stereo unspecified)	–	2.7	> 30	5.8	DC50 [3]: 0.02 µM
CC(C)(C)c1ccc(S(=O)(=O)/N=C2\C=C(SCC(=O)O)C(=O)c3ccccc32)cc1	–	–	–	–	IC50 [4]: 0.64 µM
CNC(=O)C(Cc1cn(Cc2cc3ccccc3s2)nn1)NC(=O)C1(c2ccccc2)CC1 (stereo unspecified)	> 100	–	–	–	Kd [2]: > 50 µM
Cc1cccnc1C1(C(=O)NC(Cc2cn(-c3ccc(-c4ccc(C#N)cc4)cc3)nn2)C(=O)NC2CCN(CCCCCOc3cccc4c3C(=O)N(C3CCC(=O)NC3=O)C4=O)CC2)CC1 (stereo unspecified)	–	> 30	> 30	> 30	DC50 [3]: 0.019 µM
Cc1cccnc1C1(C(=O)NC(Cc2cn(-c3ccc(-c4ccc(C#N)cc4)cc3)nn2)C(=O)NC2CCN(CCCOc3cccc4c3C(=O)N(C3CCC(=O)NC3=O)C4=O)CC2)CC1 (stereo unspecified)	–	> 30	> 30	> 30	DC50 [3]: 0.041 µM
Cc1cccnc1C1(C(=O)NC(Cc2cn(-c3ccc(-c4ccc(C#N)cc4)cc3)nn2)C(=O)NCCCCOc2cccc3c2C(=O)N(C2CCC(=O)NC2=O)C3=O)CC1 (stereo unspecified)	–	16.5	> 30	20.7	DC50 [3]: 0.071 µM
CC(C)(C)CN(C(=O)CCl)C1CCS(=O)(=O)C1 (stereo unspecified)	–	–	–	–	Ki [7]: 0.017 µM

Further lines, with some results ahead:

IC50 [1] [µM]	GI50 (MDA-MB-468) [µM]	GI50 (PANC-1) [µM]	GI50 (Huh-7) [µM]	Compound	other results
> 100	–	–	–	CNC(=O)C(Cc1cn(-c2ccc(-c3ccc(C#N)cc3)cc2)nn1)NC(=O)C1(c2ccccc2)CCCCC1 (stereo unspecified)	–
> 100	–	–	–	CNC(=O)C(Cc1cn(-c2ccc(-c3ccc(C#N)cc3)cc2)nn1)NC(=O)Cc1ccccc1 (stereo unspecified)	–
> 100	–	–	–	CC(C)(C)NC(=O)C(Cc1cn(-c2ccc(-c3ccc(C#N)cc3)cc2)nn1)NC(=O)C1(c2ccccc2)CC1 (stereo unspecified)	–
0.25	13.8	23.1	15.4	CNC(=O)/C(=C\c1cn(-c2ccc(-c3ccc(C#N)cc3)cc2)nn1)NC(=O)C1(c2ccccc2C)CC1	Kd [2]: 0.12 µM; Papp A→B at 2 h [5]: 0.78 ×10⁻⁶ cm/s; efflux ratio at 2 h [6]: 4.77
2.09	–	–	–	CNC(=O)C(Cc1cn(-c2ccc(-c3ccc(C#N)cc3)cc2)nn1)NC(=O)C(C)(C)c1ccccc1 (stereo unspecified)	Kd [2]: 2.93 µM
> 100	–	–	–	CNC(=O)C(Cc1cn(-c2ccc(-c3ccc(C#N)cc3)cc2)nn1)NC(=O)C1(c2ccccc2)CCC1 (stereo unspecified)	–
0.36	4.6	> 30	> 30	CNC(=O)C(Cc1cn(-c2ccc(-c3ccc(C#N)cc3)cc2)nn1)NC(=O)C1(c2ncccc2C)CC1 (stereo unspecified)	Kd [2]: 0.37 µM
> 100	–	–	–	CNC(=O)C(Cc1cn(-c2ccc(-c3ccc(C#N)cc3)cc2)nn1)NC(=O)C1(c2ccccc2)CCCC1 (stereo unspecified)	–
–	36.8	9.3	9.9	Cc1ccccc1C1(C(=O)NC(Cc2cn(-c3ccc(-c4ccc(C#N)cc4)cc3)nn2)C(=O)NC2CCN(C)CC2)CC1 (stereo unspecified)	Papp A→B at 2 h [5]: 0.01 ×10⁻⁶ cm/s
